Test results reported in US9981987B2, “Tricyclic heterocyclic compounds as phosphoinositide 3-kinase inhibitors” (Karus Therapeutics Limited, priority 2014, dated 2018).
Each block holds one compound with its values, some of them ahead of it.

Key:
[1] = Rodent pharmacokinetics, male CD1 mouse, plasma PK; format: in vivo; conditions: for clearance / AUC / AUC(0-inf) / AUC(0-t) / Cmax / Vd / half-life: male, CD1, mouse
Procedure: Formulation: 10% DMSO, 90% Saline Dosing: 10 mg/kg P.O. and 5 mg/kg I.V. Plasma PK Summary:
Formulation: 10% DMSO, 90% Saline
Dosing: 10 mg/kg P.O. and 5 mg/kg I.V.

PI3K isoforms = experiment: HTRF biochemical assay, fold selectivity between PI3K isoforms; conditions: isoform selectivity
Source text: (§1) Fold form selectivity inhibition data against PI3K isoforms, as determined using a HTRF biochemical assay, is listed below.

[2] = Rodent pharmacokinetics, male Balb/c mouse, plasma PK; format: in vivo; conditions: for clearance: male, Balb/c, mouse, iv; for clearance / AUC(0-inf) / AUC(0-t) / Cmax / half-life / Vd / Tmax / bioavailability: plasma; for Vd: read-out: Vss
Procedure: Animals in Group 1 were administered intravenously with Example B solution formulation in 20% Propylene Glycol, 50% of PEG 400 and 30% of (20% HPβCD in water) via tail vein at a dose of 3 mg/kg.
Animals in Group 2 were administered with oral solution formulation of Example B in 20% Propylene Glycol, 50% of PEG 400 and 30% of (20% HPβCD in water) at a dose of 10 mg/kg;
Dosing: 10 mg/kg P.O. and 3 mg/kg I.V.
Animals in Group 1 were administered intravenously with Example G solution formulation in 5% NMP, 5% solutol HS-15 in 90% HPβCD solution (20% HPβCD in RO water) at 3 mg/kg dose.
Animals in Group 2 were administered orally with 10 mg/kg solution formulation of Example G in 5% NMP, 5% solutol HS-15 in 90% HPβCD solution (20% HPβCD in RO water)

PI3K p110α = PI3K p110α (Homo sapiens, UniProt P42336); experiment: HTRF biochemical assay, PI3K p110α
Chain of PI3K p110α (P42336 whole entry): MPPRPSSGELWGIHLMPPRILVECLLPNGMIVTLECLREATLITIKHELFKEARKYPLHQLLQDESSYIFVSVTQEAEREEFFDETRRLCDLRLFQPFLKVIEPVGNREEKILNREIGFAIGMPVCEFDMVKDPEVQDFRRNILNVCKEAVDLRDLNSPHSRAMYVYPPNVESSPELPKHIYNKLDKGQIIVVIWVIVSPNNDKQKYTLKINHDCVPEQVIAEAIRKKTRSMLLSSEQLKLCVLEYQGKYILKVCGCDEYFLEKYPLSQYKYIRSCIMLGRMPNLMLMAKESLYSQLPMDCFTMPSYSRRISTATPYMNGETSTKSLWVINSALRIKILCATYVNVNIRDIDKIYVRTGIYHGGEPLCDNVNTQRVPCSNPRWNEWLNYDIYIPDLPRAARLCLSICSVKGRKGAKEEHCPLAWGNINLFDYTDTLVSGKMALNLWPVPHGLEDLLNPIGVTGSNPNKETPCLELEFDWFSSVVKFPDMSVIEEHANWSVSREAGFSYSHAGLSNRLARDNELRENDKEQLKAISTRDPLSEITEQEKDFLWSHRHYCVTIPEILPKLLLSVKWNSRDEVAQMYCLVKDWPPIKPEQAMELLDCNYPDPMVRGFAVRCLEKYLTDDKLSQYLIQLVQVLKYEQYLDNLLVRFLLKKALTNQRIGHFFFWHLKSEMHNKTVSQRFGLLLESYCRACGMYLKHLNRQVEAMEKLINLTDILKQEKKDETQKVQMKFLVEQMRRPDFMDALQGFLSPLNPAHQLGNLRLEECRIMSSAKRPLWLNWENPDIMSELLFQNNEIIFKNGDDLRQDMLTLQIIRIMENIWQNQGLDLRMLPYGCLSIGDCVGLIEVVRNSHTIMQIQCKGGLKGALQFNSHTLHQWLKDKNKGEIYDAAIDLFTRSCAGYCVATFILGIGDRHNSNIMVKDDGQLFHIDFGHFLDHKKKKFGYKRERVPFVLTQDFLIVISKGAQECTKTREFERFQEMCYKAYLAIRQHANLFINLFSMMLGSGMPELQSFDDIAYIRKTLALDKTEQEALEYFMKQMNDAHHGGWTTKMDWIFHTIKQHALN
Chain of PI3K p110α (P27986 whole entry partner): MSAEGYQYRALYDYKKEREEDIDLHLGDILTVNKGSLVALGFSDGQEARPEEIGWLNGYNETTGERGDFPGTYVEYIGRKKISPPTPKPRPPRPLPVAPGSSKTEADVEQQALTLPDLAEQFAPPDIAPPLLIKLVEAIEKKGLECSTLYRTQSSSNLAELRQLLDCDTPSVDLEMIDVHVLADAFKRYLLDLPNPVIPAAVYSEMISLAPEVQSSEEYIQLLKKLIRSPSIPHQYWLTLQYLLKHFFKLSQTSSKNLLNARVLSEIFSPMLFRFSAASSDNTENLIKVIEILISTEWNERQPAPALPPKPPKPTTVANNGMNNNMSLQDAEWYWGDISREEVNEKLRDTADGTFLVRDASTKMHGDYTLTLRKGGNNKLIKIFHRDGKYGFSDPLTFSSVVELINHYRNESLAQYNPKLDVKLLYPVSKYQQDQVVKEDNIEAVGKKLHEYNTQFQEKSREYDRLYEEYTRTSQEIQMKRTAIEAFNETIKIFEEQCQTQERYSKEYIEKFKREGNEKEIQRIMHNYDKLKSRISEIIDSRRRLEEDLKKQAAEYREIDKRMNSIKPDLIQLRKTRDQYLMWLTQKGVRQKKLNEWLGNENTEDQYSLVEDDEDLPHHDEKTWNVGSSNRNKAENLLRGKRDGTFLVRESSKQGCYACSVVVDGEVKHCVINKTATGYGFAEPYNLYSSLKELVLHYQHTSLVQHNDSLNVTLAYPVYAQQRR
Source text: as §1

PI3K p110β = PI3K p110β (Homo sapiens, UniProt P42338); experiment: HTRF biochemical assay, PI3K p110β
Chain of PI3K p110β (P42338 whole entry): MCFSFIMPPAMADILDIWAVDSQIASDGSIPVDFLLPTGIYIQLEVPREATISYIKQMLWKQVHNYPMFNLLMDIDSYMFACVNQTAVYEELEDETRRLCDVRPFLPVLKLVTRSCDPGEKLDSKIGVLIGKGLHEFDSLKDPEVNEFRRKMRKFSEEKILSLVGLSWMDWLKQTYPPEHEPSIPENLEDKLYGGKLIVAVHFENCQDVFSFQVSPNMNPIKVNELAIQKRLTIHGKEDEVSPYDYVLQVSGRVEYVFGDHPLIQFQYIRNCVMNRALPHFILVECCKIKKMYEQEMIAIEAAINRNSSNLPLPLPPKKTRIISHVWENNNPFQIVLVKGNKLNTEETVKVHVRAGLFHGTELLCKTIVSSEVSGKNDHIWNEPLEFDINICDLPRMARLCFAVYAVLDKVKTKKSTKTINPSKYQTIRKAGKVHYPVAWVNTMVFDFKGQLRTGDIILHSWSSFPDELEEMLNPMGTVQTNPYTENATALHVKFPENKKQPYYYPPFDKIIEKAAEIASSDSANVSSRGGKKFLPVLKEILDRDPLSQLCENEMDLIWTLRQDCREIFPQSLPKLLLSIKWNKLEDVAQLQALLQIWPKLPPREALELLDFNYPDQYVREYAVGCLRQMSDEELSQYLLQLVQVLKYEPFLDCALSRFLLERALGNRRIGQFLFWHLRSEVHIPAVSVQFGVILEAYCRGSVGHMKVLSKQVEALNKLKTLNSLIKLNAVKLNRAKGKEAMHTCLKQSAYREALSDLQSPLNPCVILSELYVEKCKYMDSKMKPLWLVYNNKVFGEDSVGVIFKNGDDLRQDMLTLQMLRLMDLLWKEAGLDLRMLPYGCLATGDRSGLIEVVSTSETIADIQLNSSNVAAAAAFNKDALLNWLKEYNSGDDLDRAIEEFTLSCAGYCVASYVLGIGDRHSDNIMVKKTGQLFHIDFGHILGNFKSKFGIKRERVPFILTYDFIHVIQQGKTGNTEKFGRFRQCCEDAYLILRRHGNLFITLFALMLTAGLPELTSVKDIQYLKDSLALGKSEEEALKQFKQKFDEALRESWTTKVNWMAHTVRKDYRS
Chain of PI3K p110β (P27986 whole entry partner): as the sequence (P27986 whole entry partner) above
Source text: as §1

PI3K p110δ = PI3K p110δ (Homo sapiens, UniProt O00329); experiment: HTRF biochemical assay, PI3K p110δ
Chain of PI3K p110δ (O00329 whole entry): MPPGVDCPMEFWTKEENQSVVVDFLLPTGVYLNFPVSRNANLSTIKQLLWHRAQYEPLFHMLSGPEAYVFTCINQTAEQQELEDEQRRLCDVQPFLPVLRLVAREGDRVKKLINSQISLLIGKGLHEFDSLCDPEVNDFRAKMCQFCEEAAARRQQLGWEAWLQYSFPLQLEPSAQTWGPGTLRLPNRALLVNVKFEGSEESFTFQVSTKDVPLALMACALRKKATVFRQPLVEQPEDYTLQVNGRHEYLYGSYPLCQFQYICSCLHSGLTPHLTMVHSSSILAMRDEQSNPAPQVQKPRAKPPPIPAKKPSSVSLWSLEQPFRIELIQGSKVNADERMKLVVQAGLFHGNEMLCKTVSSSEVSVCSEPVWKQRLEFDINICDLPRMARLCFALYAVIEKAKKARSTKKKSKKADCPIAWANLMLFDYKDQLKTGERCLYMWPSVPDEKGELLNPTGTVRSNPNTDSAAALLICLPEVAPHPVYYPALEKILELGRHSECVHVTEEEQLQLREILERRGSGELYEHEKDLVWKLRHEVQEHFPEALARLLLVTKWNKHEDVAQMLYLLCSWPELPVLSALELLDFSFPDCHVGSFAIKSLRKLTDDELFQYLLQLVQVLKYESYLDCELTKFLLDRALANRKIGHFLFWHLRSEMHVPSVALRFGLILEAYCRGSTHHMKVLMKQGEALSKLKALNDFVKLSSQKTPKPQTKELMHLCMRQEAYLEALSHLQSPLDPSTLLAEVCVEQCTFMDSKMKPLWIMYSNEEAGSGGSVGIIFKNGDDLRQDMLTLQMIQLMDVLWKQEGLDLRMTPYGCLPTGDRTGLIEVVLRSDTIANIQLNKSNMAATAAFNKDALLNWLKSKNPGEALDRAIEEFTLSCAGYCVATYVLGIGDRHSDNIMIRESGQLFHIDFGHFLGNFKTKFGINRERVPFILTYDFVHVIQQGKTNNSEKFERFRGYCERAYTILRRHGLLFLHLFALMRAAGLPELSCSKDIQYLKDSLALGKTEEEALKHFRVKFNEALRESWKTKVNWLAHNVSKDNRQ
Chain of PI3K p110δ (P27986 whole entry partner): as the sequence (P27986 whole entry partner) above
Source text: as §1

PI3K p110γ = PI3K p110γ (Homo sapiens, UniProt P48736); experiment: HTRF biochemical assay, PI3K p110γ
Chain of PI3K p110γ (P48736 whole entry): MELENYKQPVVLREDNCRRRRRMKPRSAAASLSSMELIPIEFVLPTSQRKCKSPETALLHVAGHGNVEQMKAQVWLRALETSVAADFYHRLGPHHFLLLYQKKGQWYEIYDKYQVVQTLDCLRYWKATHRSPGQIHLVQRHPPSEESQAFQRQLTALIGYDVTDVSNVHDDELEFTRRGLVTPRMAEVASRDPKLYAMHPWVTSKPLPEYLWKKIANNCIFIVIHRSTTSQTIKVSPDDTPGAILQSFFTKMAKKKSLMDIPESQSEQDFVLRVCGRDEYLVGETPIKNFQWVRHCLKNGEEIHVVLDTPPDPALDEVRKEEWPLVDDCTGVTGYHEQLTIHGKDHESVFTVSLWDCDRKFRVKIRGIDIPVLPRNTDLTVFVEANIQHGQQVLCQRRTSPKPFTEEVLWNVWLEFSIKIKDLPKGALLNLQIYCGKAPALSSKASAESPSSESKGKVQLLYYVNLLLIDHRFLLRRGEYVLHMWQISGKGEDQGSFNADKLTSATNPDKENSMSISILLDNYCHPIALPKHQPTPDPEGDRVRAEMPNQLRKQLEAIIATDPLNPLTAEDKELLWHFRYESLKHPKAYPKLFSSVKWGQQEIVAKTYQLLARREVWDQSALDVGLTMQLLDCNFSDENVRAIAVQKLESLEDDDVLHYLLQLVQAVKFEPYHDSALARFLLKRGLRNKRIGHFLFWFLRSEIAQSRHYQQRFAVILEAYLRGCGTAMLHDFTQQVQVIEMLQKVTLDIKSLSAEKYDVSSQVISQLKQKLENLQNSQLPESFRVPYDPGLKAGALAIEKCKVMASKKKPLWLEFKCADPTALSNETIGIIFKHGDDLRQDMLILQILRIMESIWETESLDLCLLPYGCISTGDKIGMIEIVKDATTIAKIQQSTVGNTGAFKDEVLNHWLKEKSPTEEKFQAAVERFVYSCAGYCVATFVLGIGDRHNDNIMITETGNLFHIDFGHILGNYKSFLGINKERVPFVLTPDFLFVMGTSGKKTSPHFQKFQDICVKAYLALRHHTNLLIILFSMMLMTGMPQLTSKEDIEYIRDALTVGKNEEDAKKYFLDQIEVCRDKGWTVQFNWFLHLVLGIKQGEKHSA
Source text: as §1

[3] = plasma, iv, 5 mg/kg, 5 mg/kg I.V., summary
[4] = plasma, iv, 5 mg/kg, Mesylate Salt
[5] = plasma, po, 10 mg/kg, Mesylate Salt
[6] = plasma, IV, 5 mg/kg, Mesylate Salt, read-out: Tmax
[7] = plasma, PO, 10 mg/kg, Mesylate Salt, read-out: Tmax
[8] = plasma, oral, 10 mg/kg P.O. and 5 mg/kg I.V., rounded summary in text, read-out: Oral bioavailability (F)
[9] = plasma, po, 10 mg/kg, summary table, unit inferred, read-out: Oral Bioavailability (F)
[10] = oral, 10 mg/kg P.O. and 3 mg/kg I.V., read-out: Oral bioavailability (F)
[11] = po, 10 mg/kg, summary table, unit inferred, read-out: Oral Bioavailability (F)

Compound: c1cc(-c2nc(N3CCOCC3)c3oc4ncc(CN5CCC6(CC5)COC6)cc4c3n2)c2cc[nH]c2c1 [Example B, 4-(1H-Indol-4-yl)-6-(morpholin-4-yl)-12-{2-oxa-7-azaspiro[3.5]nonan-7-ylmethyl}-8-oxa-3,5,10-triazatricyclo[7.4.0.027]trideca-1(13),2(7),3,5,9,11-hexaene]
Fold IC50 p110β/p110α (PI3K isoforms): ** (** = ≥50x)
Fold IC50 p110β/p110γ (PI3K isoforms): ** (** = ≥50x)
Fold IC50 p110δ/p110α (PI3K isoforms): ** (** = ≥50x)
Fold IC50 p110δ/p110γ (PI3K isoforms): ** (** = ≥50x)
F ([2]; PO, 10 mg/kg, Mesylate Salt): 74%
clearance ([2]; 3 mg/kg, 3 mg/kg I.V., summary): 33 mL/min/kg
clearance ([2]; 3 mg/kg, Mesylate Salt): 33.1 mL/min/kg
AUC(0-inf) ([2]; IV, 3 mg/kg, Mesylate Salt): 1510 ng·h/mL
AUC(0-t) ([2]; IV, 3 mg/kg, Mesylate Salt): 1510 ng·h/mL
Cmax ([2]; IV, 3 mg/kg, Mesylate Salt): 621 ng/mL
half-life ([2]; IV, 3 mg/kg, Mesylate Salt): 1.23 h
Vd ([2]; IV, 3 mg/kg, Mesylate Salt): 5.51 L/kg
AUC(0-inf) ([2]; PO, 10 mg/kg, Mesylate Salt): 4100 ng·h/mL
AUC(0-t) ([2]; PO, 10 mg/kg, Mesylate Salt): 3730 ng·h/mL
Cmax ([2]; PO, 10 mg/kg, Mesylate Salt): 780 ng/mL
Tmax ([2]; PO, 10 mg/kg, Mesylate Salt): 1 h
bioavailability [2, 10]: 74%
bioavailability [2, 11]: 74%

Compound: c1cc(-c2nc(N3CCOCC3)c3oc4ncc(CN5CCC56COC6)cc4c3n2)c2cc[nH]c2c1 [Example G, 4-(1H-indol-4-yl)-6-(morpholin-4-yl)-12-{6-oxa-1-azaspiro[3.3]heptan-1-ylmethyl}-8-oxa-3,5,10-triazatricyclo[7.4.0.0^2,7]trideca-1(13),2(7),3,5,9,11-hexaene]
IC50 (PI3K p110α): ≤ 500 nM
IC50 (PI3K p110β): ≤ 500 nM
IC50 (PI3K p110δ): ≤ 500 nM
F ([2]; PO, 10 mg/kg, Mesylate Salt): 30%
clearance ([2]; 3 mg/kg, 3 mg/kg I.V., summary): 26 mL/min/kg
clearance ([2]; 3 mg/kg, Mesylate Salt): 25.8 mL/min/kg
AUC(0-inf) ([2]; IV, 3 mg/kg, Mesylate Salt): 1940 ng·h/mL
AUC(0-t) ([2]; IV, 3 mg/kg, Mesylate Salt): 1920 ng·h/mL
Cmax ([2]; IV, 3 mg/kg, Mesylate Salt): 2210 ng/mL
half-life ([2]; IV, 3 mg/kg, Mesylate Salt): 0.59 h
Vd ([2]; IV, 3 mg/kg, Mesylate Salt): 1.25 L/kg
AUC(0-inf) ([2]; PO, 10 mg/kg, Mesylate Salt): 2140 ng·h/mL
AUC(0-t) ([2]; PO, 10 mg/kg, Mesylate Salt): 1890 ng·h/mL
Cmax ([2]; PO, 10 mg/kg, Mesylate Salt): 833 ng/mL
Tmax ([2]; PO, 10 mg/kg, Mesylate Salt): 0.25 h
bioavailability [2, 10]: 30%
bioavailability [2, 11]: 30%
IC50 (PI3K p110γ): 500 to 1000 nM

Compound: c1cc(-c2nc(N3CCOCC3)c3oc4ncc(CN5CCCCC5)cc4c3n2)c2cc[nH]c2c1 [Example I in WO2011/021038]
Tmax ([1]; IV, 5 mg/kg, HCl Salt): 0.08 h
F ([1]; PO, 10 mg/kg, HCl Salt): 29.6%
Tmax ([1]; PO, 10 mg/kg, HCl Salt): 1.0 h
F ([1]; PO, 10 mg/kg, Mesylate Salt): 27.8%
clearance [1, 3]: 66 mL/min/kg
AUC ([1]; plasma, iv, 5 mg/kg, HCl Salt): 1480 ng·h/mL
AUC(0-inf) ([1]; plasma, iv, 5 mg/kg, HCl Salt): 1520 ng·h/mL
AUC(0-t) ([1]; plasma, iv, 5 mg/kg, HCl Salt): 1480 ng·h/mL
Cmax ([1]; plasma, iv, 5 mg/kg, HCl Salt): 1710 ng/mL
Vd ([1]; plasma, iv, 5 mg/kg, HCl Salt): 10.1 L/kg
clearance ([1]; plasma, iv, 5 mg/kg, HCl Salt): 55 mL/min/kg
half-life ([1]; plasma, iv, 5 mg/kg, HCl Salt): 7.6 h
AUC [1, 4]: 1240 ng·h/mL
AUC(0-inf) [1, 4]: 1260 ng·h/mL
AUC(0-t) [1, 4]: 1240 ng·h/mL
Cmax [1, 4]: 1620 ng/mL
Vd [1, 4]: 4.6 L/kg
clearance [1, 4]: 66.1 mL/min/kg
half-life [1, 4]: 1.6 h
AUC ([1]; plasma, po, 10 mg/kg, HCl Salt): 849 ng·h/mL
AUC(0-inf) ([1]; plasma, po, 10 mg/kg, HCl Salt): 896 ng·h/mL
AUC(0-t) ([1]; plasma, po, 10 mg/kg, HCl Salt): 849 ng·h/mL
Cmax ([1]; plasma, po, 10 mg/kg, HCl Salt): 322 ng/mL
half-life ([1]; plasma, po, 10 mg/kg, HCl Salt): 1.8 h
AUC [1, 5]: 657 ng·h/mL
AUC(0-inf) [1, 5]: 700 ng·h/mL
AUC(0-t) [1, 5]: 657 ng·h/mL
Cmax [1, 5]: 212 ng/mL
half-life [1, 5]: 1.9 h
Tmax [1, 6]: 0.08 h
Tmax [1, 7]: 1 h
bioavailability [1, 8]: 28%
bioavailability [1, 9]: 28%

More lines, now with the values ahead:

F ([1]; PO, 10 mg/kg, Mesylate Salt): 73.77%
clearance [1, 3]: 21 mL/min/kg
AUC [1, 4]: 3900 ng·h/mL
AUC(0-inf) [1, 4]: 3950 ng·h/mL
AUC(0-t) [1, 4]: 3900 ng·h/mL
Cmax [1, 4]: 2640 ng/mL
Vd [1, 4]: 2.44 L/kg
clearance [1, 4]: 21.1 mL/min/kg
half-life [1, 4]: 1.3 h
AUC [1, 5]: 5620 ng·h/mL
AUC(0-inf) [1, 5]: 5820 ng·h/mL
AUC(0-t) [1, 5]: 5620 ng·h/mL
Cmax [1, 5]: 1970 ng/mL
half-life [1, 5]: 1.3 h
Tmax [1, 6]: 0.08 h
Tmax [1, 7]: 1 h
bioavailability [1, 8]: 74%
bioavailability [1, 9]: 74%
Compound: c1cc(-c2nc(N3CCOCC3)c3oc4ncc(CN5C[C@@H]6C[C@H]5CO6)cc4c3n2)c2cc[nH]c2c1 [Example A, 4-(1H-Indol-4-yl)-6-(morpholin-4-yl)-12-[(1S,4S)-2-oxa-5-azabicyclo[2.2.1]heptan-5-ylmethyl]-8-oxa-3,5,10-triazatricyclo[7.4.0.0^2,7]trideca-1(13),2(7),3,5,9,11-hexaene]

Fold IC50 p110β/p110α (PI3K isoforms): ** (** = ≥50x)
Fold IC50 p110β/p110γ (PI3K isoforms): ** (** = ≥50x)
Fold IC50 p110δ/p110α (PI3K isoforms): ** (** = ≥50x)
Fold IC50 p110δ/p110γ (PI3K isoforms): ** (** = ≥50x)
Compound: CN1CCC2(CCN(Cc3cnc4oc5c(N6CCOCC6)nc(-c6cccc7[nH]ccc67)nc5c4c3)CC2)C1 [Example D, 4-(1H-Indol-4-yl)-12-({2-methyl-2,8-diazaspiro[4.5]decan-8-yl}methyl)-6-(morpholin-4-yl)-8-oxa-3,5,10-triazatricyclo[7.4.0.0^2,7]trideca-1(13),2(7),3,5,9,11-hexaene]

Fold IC50 p110β/p110α (PI3K isoforms): ** (** = ≥50x)
Fold IC50 p110β/p110γ (PI3K isoforms): ** (** = ≥50x)
Fold IC50 p110δ/p110α (PI3K isoforms): ** (** = ≥50x)
Fold IC50 p110δ/p110γ (PI3K isoforms): ** (** = ≥50x)
Compound: CN1CCC2(CCN(Cc3cnc4oc5c(N6CCOCC6)nc(-c6cccc7[nH]ccc67)nc5c4c3)C2)C1 (centres unmarked) [Example E, 4-(1H-Indol-4-yl)-12-({7-methyl-2,7-diazaspiro[4.4]nonan-2-yl}methyl)-6-(morpholin-4-yl)-8-oxa-3,5,10-triazatricyclo[7.4.0.0^2,7]trideca-1(13),2(7),3,5,9,11-hexaene]
